Row | SMILES | pKa
1 | CC(Cc1ccc(C(C)(C)C)cc1)CN1CC(C)OC(C)C1 (centres undefined) | 7.34
2 | CCC1OC(=O)CC(O)C(C)C(OC2OC(C)C(OC3CC(C)(O)C(O)C(C)O3)C(N(C)C)C2O)C(CC=O)CC(C)C(=O)C=CC(C)=CC1COC1OC(C)C(O)C(OC)C1CC (centres undefined) | 7.73
3 | COc1ccccc1OCCNCC(O)COc1cccc2[nH]c3ccccc3c12 (centres undefined) | 7.97
4 | CC(C)(C)NC[C@H](O)COc1nsnc1N1CCOCC1 | 9.53
5 | CC1(C)S[C@@H]2[C@@H](NC(=O)[C@H](N)c3ccc(O)cc3)C(=O)N2[C@H]1C(=O)O | 2.6
6 | CC(C)NCC(O)COc1cccc2[nH]c3ccccc3c12 (centres undefined) | 9.52
7 | CC[C@H]1OC(=O)[C@@H](C)[C@H](O[C@H]2C[C@](C)(OC)[C@H](O)[C@@H](C)O2)[C@@H](C)[C@@H](O[C@@H]2O[C@H](C)C[C@@H](N(C)C)[C@@H]2O)[C@](C)(O)C[C@@H](C)C(=O)[C@@H](C)[C@@H](O)[C@]1(C)O | 8.8
8 | CCCCC[C@H](O)/C=C/[C@H]1[C@H](CCCCCCC(=O)O)C(=O)C[C@@H]1O | 4.87
9 | CC(C)(C)NCC(O)COc1ccccc1C1CCCC1 (centres undefined) | 9.92
10 | COc1ccc2c3c1O[C@H]1[C@@H](O)C=C[C@H]4[C@@H](C2)NCC[C@@]341 | 9.23
11 | CC(=O)Oc1c(C)cc(OCC(O)CNC(C)C)c(C)c1C (centres undefined) | 9.54
12 | C=CCOc1ccccc1OCC(O)CNC(C)C (centres undefined) | 9.57
13 | NC(Cc1c[nH]c2ccccc12)C(=O)NC(Cc1ccccc1)C(=O)O (centres undefined) | 3.18
14 | COC1CC(OC2C(C)C(O)OC(C)C(C)C(O)C(C)C(=O)C3(CO3)CC(C)C(OC3OC(C)CC(N(C)C)C3O)C2C)OC(C)C1O (centres undefined) | 8.84
15 | N#Cc1ccc2c(c1)N(CCCCN1CCC(O)CC1)c1ccccc1S2 | 8.76
16 | CCC(=O)OC(Cc1ccccc1)(c1ccccc1)C(C)CN(C)C (centres undefined) | 9.06
17 | CCC1OC(=O)CC(O)CC(OC2OC(C)CC(N(C)C)C2O)C(CC=O)CC(C)C(=O)C=CC2OC2C1C (centres undefined) | 8.79
18 | CN[C@H]1C(O)O[C@H](CO)[C@@H](O)[C@@H]1O (some centres undefined) | 9.6
19 | CC(C)NCC(O)COc1ccc(COCCOC(C)C)cc1 (centres undefined) | 9.57
20 | CCC1OC(=O)CC(O)C(C)C(OC2OC(C)C(O)C(N(C)C)C2O)C(CC=O)CC(C)C(=O)C=CC(C)=CC1COC1OC(C)C(O)C(OC)C1CC (centres undefined) | 8.36
21 | CCOC(=O)[C@H](CCc1ccccc1)N[C@@H](C)C(=O)N1CCC[C@H]1C(=O)O | 2.92
22 | COC1C(OC(C)=O)CC(=O)OC(C)CC2OC2/C=C/C(=O)C(C)CC(CC=O)C1OC1OC(C)C(O)C(N(C)C)C1O (centres undefined) | 8.44

Row | SMILES | pKa
23 | CC[C@H]1OC(=O)[C@@H](C)[C@H](O[C@@H]2C[C@](C)(OC)[C@@H](O)[C@@H](C)O2)[C@@H](C)[C@@H](O[C@@H]2O[C@H](C)C[C@@H](N(C)C)[C@@H]2O)[C@](C)(O)C[C@@H](C)/C(=N/OCOCCOC)[C@@H](C)[C@@H](O)[C@]1(C)O | 9.27
24 | CC(C)(C)NCC(O)COc1cccc2c1C[C@H](O)[C@H](O)C2 (some centres undefined) | 9.69
25 | CC(C(=O)O)c1ccc(-c2ccccc2)c(F)c1 (centres undefined) | 4.03
26 | CN/C(=C\[N+](=O)[O-])NCCSCc1ccc(CN(C)C)o1 | 8.31
27 | CCN(C)C(=O)Oc1cccc(C(C)N(C)C)c1 (centres undefined) | 8.8
28 | CC(C)n1c(/C=C/[C@H](O)C[C@H](O)CC(=O)O)c(-c2ccc(F)cc2)c2ccccc21 | 4.31
29 | CCN(CC)CCOC(=O)c1ccc(N)cc1 | 9.04
30 | CN(C)CCC=C1c2ccccc2CCc2ccccc21 | 9.49
31 | CCC1OC(=O)CC(O)C(C)C(CC=O)(OC2OC(C)CC(N(C)C)C2O)CC(C)C(=O)C=CC(C)=CC1C (centres undefined) | 8.83
32 | CCCN(CCC)S(=O)(=O)c1ccc(C(=O)O)cc1 | 3.01
33 | O=C1CC2(CCCC2)CC(=O)N1CCCCN1CCN(c2ncccn2)CC1 | 7.6
34 | CN(C)CCCOc1nn(Cc2ccccc2)c2ccccc12 | 9.27
35 | COc1ccc([C@@H]2Sc3ccccc3N(CCN(C)C)C(=O)[C@@H]2OC(C)=O)cc1 | 8.02
36 | CO[C@H]1[C@@H](O[C@@H]2O[C@H](C)[C@@H](O[C@H]3C[C@@](C)(O)[C@@H](O[C@@H](O)CC(C)C)[C@H](C)O3)[C@@H](N(C)C)[C@H]2O)[C@@H](CCO)C[C@@H](C)[C@H](O)CC[C@@H]2O[C@H]2C[C@@H](C)O[C@@H](O)C[C@H]1O[C@H](C)O | 7.61
37 | CCN(CC)C(=O)Nc1ccc(OCC(O)CNC)c(C(C)=O)c1 (centres undefined) | 9.66
38 | NC(Cc1c[nH]c2ccccc12)C(=O)NC(Cc1c[nH]c2ccccc12)C(=O)O (centres undefined) | 3.38
39 | CN(C)CCOC1(c2ccccc2)CC2CCC1(C)C2(C)C (centres undefined) | 9.61
40 | NC(CC(=O)O)C(=O)O (centres undefined) | 9.67
41 | CC(C)(C)c1ccc(C(O)CCCN2CCC(C(O)(c3ccccc3)c3ccccc3)CC2)cc1 (centres undefined) | 9.86
42 | CC(NC(CCc1ccccc1)C(=O)O)C(=O)N1CCCC1C(=O)O (centres undefined) | 7.84
43 | Cc1cc(=O)oc2cc(C3OC(C(=O)O)C(O)C(O)C3O)ccc12 (centres undefined) | 2.82
44 | CCCCC[C@H](O)/C=C/[C@H]1[C@H](C/C=C/CCCC(=O)O)C(=O)C[C@@H]1O | 4.77

Source: the pKa sets of Baltruschat and Czodrowski (2020)
